{
  "source": "patent US9248163B2",
  "about": "“Insulin-like growth factor binding protein 7 for treatment of cancer” (University of Massachusetts, priority 2007, dated 2016)",
  "key": {"[1]": {"test_system": "SK-MEL-28 cells", "test": "ChIP assays 24 hours following rIGFBP7 treatment", "type": "cell-based, human", "protocol": "Chromatin immunoprecipitation (ChIP) assays were performed using extracts prepared 24 hours following rIGFBP7 treatment. The following antibodies were used: α-BRG1 (de La Serna et al., 2000, Mol. Cell. Biol., 20:2839-51), α-phospho-STAT1 (Upstate), and α-SMARCB1 and α-STAT1 (Santa Cruz). For ChIP experiments on the SMARCB1 promoter, primers spanning a STAT1 binding site located ˜2.4 kb upstream of the transcription start-site were used. For ChIP experiments on the BNIP3L promoter, a series of primer-pairs that covered ˜2 kb of the BNIP3L promoter were used; following addition of rIGFBP7, SMARCB1 and BRG1 were recruited to the BNIP3L promoter near the transcription start-site. ChIP products were analyzed by quantitative real-time PCR using Platinum SYBR™ Green qPCR SuperMix-UDG with Rox (Invitrogen). Calculation of fold differences was done as previously described (Pfaffl, 2001, Nucleic Acids Res., 29:e45)."}, "[2]": {"test_system": "SK-MEL-28 (BRAFV600E-positive) tumors", "test": "Tumor formation assay, SK-MEL-28 xenograft in nude mice", "type": "in vivo, athymic Balb/c (nu/nu) mice", "protocol": "(§1) 5×10^6 SK-MEL-28 or SK-MEL-31 cells were suspended in 100 μl of serum-free DMEM and injected subcutaneously into the right flank of athymic Balb/c (nu/nu) mice (Taconic). Three, six, and nine days later, the mice were injected at the tumor site with either 20 μg of rIGBP7 in a total volume of 100 μl or, as a control, PBS. Tumor dimensions were measured every three days and tumor volume was calculated using the formula π/6×(length)×(width)^2. For the systemic administration experiments, 5×10^6 SK-MEL-28 or SK-MEL-31 cells were injected into the flanks of nude mice and when tumors reached a size of 100 mm3, 100 μg rIGFBP7 in a total volume of 100 μl was delivered by tail vein injection at days 6, 9, and 12. Tumor dimensions were measured every three days. Animal experiments were performed in accordance with the Institutional Animal Care and Use Committee (IACUC) guidelines."}, "[3]": {"test_system": "SK-MEL-28 cells", "test": "Immunoblot analysis of SMARCB1, BNIP3L and activated caspase 3", "type": "cell-based, human", "settings": "10 μg/ml", "protocol": "To prepare cell extracts, cells were lysed in Laemmli buffer; for phospho-proteins, cells were lysed in the presence of a phosphatase inhibitor cocktail (Sigma). To prepare conditioned media, cells were grown in Opti-MEM™ (Invitrogen) for 24 hours, and media was harvested and concentrated using Centricon™ plus 20 tubes (Millipore). Conditioned media was normalized to cell number prior to loading the gel. For the experiments shown in FIGS. 3D and 4C, rIGFBP7 was added to the culture medium at a concentration of 10 μg/ml. For the MEK/RAF inhibitor experiment of FIG. 4D, SK-MEL-28 cells were treated with 2 μg/ml or 10 μg/ml rIGFBP7, 20 μM or 40 μM of the MEK inhibitor PD98054 (Calbiochem), or 5 nM or 10 nM the RAF inhibitor GW5074 (Sigma) for 24 hours prior to harvesting cells. Proteins were resolved by SDS-PAGE and transferred to nitrocellulose. Blots were probed with the following antibodies: α-p16 (Abcam), α-acetylated H3K9 (Upstate), α-IGFBP7 (Santa Cruz), α-SMARCB1 (Abnova), α-BNIP3L (Proscience), α-BRAFV600E (Santa Cruz), α-cleaved caspase-3 p11 (Santa Cruz), α-β-actin (Sigma), α-phospho-ERK (Cell Signaling) or α-ERK (Cell Signaling)."}, "[4]": {"test_system": "A375(Fluc-IRES-GFP) cells", "test": "Pulmonary metastasis model, A375(Fluc-IRES-GFP) cells by tail vein injection", "source_text": "For these experiments, A375(Fluc-IRES-GFP) cells were used, which are a highly metastatic, BRAF-positive human melanoma cell line stably expressing an Fluc-IRES-GFP reporter construct (where Fluc is the firefly luciferase gene, IRES is an internal ribosomal entry site and GFP is green fluorescent protein) (Collisson et al., 2003, Cancer Res., 63:5669-5673). The presence of Fluc-IRES-GFP enables tumor growth to be quantified over time in live animals by serial bioluminescent optical imaging.\nTwo treatment regimens were tested. In one set of experiments, administration of IGFBP7 was initiated 3 days after injection of A375-Fluc cells, at which time metastatic disease would be significant (FIG. 12A). In these experiments, 7×10^5 A375(Fluc-IRES-GFP) cells were injected into the tail vein of 10 athymic Balb/c (nu/nu) mice (Taconic). At days 3, 6 and 9, mice were injected via the tail vein with either 100 μg purified, recombinant IGFBP7 (n=5 mice) or, as a control, phosphate buffered saline (PBS) (n=5 mice). On day 6, mice were analyzed for quantitation of metastatic tumor burden by using a Xenogen brand bioluminescent imaging system. […] Mice were monitored daily for viability over 30 days, and the ability of systemically administered IGFBP7 to suppress metastatic disease was assessed by survival assays (Kaplan-Meier analysis).\nIn a second set of experiments, administration of IGFBP7 was initiated both before and shortly after injection of A375(Fluc-IRES-GFP) cells, to test the ability of IGFBP7 to function prophylactically to prevent metastasis and/or treat early metastatic disease (FIG. 13A). In these experiments, 100 μg purified, recombinant IGFBP7 (or, as a control, PBS) was injected into the tail vein of mice (n=5 mice for each group). One day later, mice were injected with 7×10^5 A375(Fluc-IRES-GFP) cells, followed by injection of 100 μg on days 3 and 6. Mice were monitored daily for viability over 30 days, and the ability of systemically administered IGFBP7 to suppress metastatic disease was assessed by survival assays (Kaplan-Meier analysis)."}, "[5]": {"test_system": "SK-MEL-31 (wild type BRAF) tumors", "test": "Tumor formation assay, SK-MEL-31 xenograft in nude mice", "type": "in vivo, athymic Balb/c (nu/nu) mice", "protocol": "as §1"}, "[6]": {"test_system": "NCI 60 panel of human cancer cell lines", "test": "Apoptosis (Annexin V-PE) in the NCI 60 panel of human cancer cell lines", "type": "cell-based", "protocol": "The ability of IGFBP7 to induce apoptosis was assessed in the NCI 60 panel of human cancer cell lines, which were obtained from the National Cancer Institute (NCI). The panel includes cell lines corresponding to breast (MDA-MB-231, HS 578T, BT-549, T47-D, MCF7), ovarian (NCI-ADR-RES, OVCAR-3, OVCAR-5, OVCAR-8, OVCAR-4, SK-OV-3, IGROV1), prostate (DU-145, PC-3), renal (TK-10, CAKI-1, A496, ACHN, RXF-393, 786-O, SN12C, UO-31), non-small cell lung (NCI-H460, HOP-62, A549-ATCC, NCI-H226, EKVX, NCI-H322M, HOP-92, NCI-H522), central nervous system (CNS) (SF-295, SF-268, SF-539, SNB-19, SNB-75, U251), colon (HCT-15, SW-620, COLO205, HT29, HCC-2998, HCT-116, SM-12), melanoma (SK-MEL-28, SK-M2L-2, LOX IMV1, M14, MALM-3M, SK-MEL-5, UACC-257, UACC-62, MDA-MB-435), and hematopoietic (CCRF-CEM, K-562, MOLT-4, SR, RPMI-8226) cancers. These cell lines have been extensively characterized and their mutational status for a number of human cancer genes, including BRAF and RAS (e.g., NRAS, KRAS, or HRAS), is known (see the World Wide Web at discover.nci.nih.gov/cellminer/mutationGeneLoad.do).\nrIGFBP7 was expressed and purified as described above. To monitor apoptosis following rIGFBP7 treatment, 5×10^5 cells were treated with rIGFBP7 (10 μg/ml) for 24 hours and stained for Annexin V-PE. The results are shown in FIG. 11A. rIGFBP7 induced apoptosis in 11/11 (100%) of the cell lines that contained a BRAF mutation and 8/13 (61.5%) of the cell lines that contained a RAS mutation. One cell line contained both a BRAF and a RAS mutation, and this cell line was susceptible to rIGFBP7-mediated apoptosis."}, "[7]": {"settings": "injected at the tumor site, 20 μg, days 3, 6 and 9"}, "[8]": {"settings": "systemic, 100 μg by tail vein injection at days 6, 9 and 12"}},
  "data": [
    {"substance": "rIGFBP7: purified recombinant human IGFBP7, C-terminal Flag-tagged, from baculovirus-infected Sf9 insect cells", "values": [
      {"measurement": "STAT1 recruitment to the SMARCB1 promoter", "setting": "[1]; SK-MEL-28 cells", "result": "recruited"},
      {"measurement": "SMARCB1 and BRG1 recruitment to the BNIP3L promoter", "setting": "[1]; near the transcription start-site", "result": "recruited"},
      {"measurement": "tumor growth", "setting": "[2]; [7]", "result": "substantially suppressed growth"},
      {"measurement": "TUNEL labeling of tumors", "setting": "[2]; mice treated with rIGFBP7", "result": "positive"},
      {"measurement": "tumor growth", "setting": "[2]; [8]", "result": "completely suppressed growth"},
      {"measurement": "suppression of tumor growth, dose dependence", "setting": "[2]; systemic, 2, 20, 50, 100 or 250 μg, tumor volume at day 21", "result": "dose-dependent"},
      {"measurement": "adverse effects", "setting": "[2]; systemic, concentrations higher than required for inhibition of tumor growth", "result": "without apparent adverse effects"},
      {"measurement": "apoptosis by caspase 3 activation", "setting": "[3]", "result": "apoptosis occurred as evidenced by caspase 3 activation"},
      {"measurement": "expression of SMARCB1 and BNIP3L", "setting": "[3]", "result": "significantly increased"},
      {"measurement": "survival (Kaplan-Meier)", "setting": "[4]; 100 μg one day before cell injection and on days 3 and 6, PBS mice died within 18 days", "result": "still viable at day 30"},
      {"measurement": "survival (Kaplan-Meier)", "setting": "[4]; 100 μg tail vein at days 3, 6 and 9 after cell injection, control mice died at 20 days", "result": "still viable at day 30"},
      {"measurement": "lung metastasis by bioluminescent imaging", "setting": "[4]; 100 μg tail vein from day 3, imaged on day 6", "result": "no evidence of lung metastasis"},
      {"measurement": "tumor growth", "setting": "[5]; [7]", "result": "no effect"},
      {"measurement": "tumor growth", "setting": "[5]; [8]", "result": "unaffected"},
      {"measurement": "cell lines in which apoptosis was induced", "setting": "[6]; cell lines that contained a BRAF mutation (11/11), 10 μg/ml, 24 hours", "result": 100, "unit": "%"},
      {"measurement": "cell lines in which apoptosis was induced", "setting": "[6]; cell lines that contained a RAS mutation (8/13), 10 μg/ml, 24 hours", "result": 61.5, "unit": "%"},
      {"measurement": "cell lines susceptible to apoptosis", "setting": "[6]; cell lines without a BRAF or RAS mutation (4/34), 10 μg/ml, 24 hours", "result": 11.8, "unit": "%"},
      {"measurement": "susceptibility to rIGFBP7-mediated apoptosis", "setting": "[6]; one cell line with both a BRAF and a RAS mutation", "result": "susceptible"}
    ]}
  ]
}
